This is an account of results in patent publication US20220362138A1, “Oral Care Compositions and Methods of Use” (Colgate-Palmolive Company, priority 2020, published 2022).

This test has as its system IL-1 β mediated PGE2 in HEPM monolayer cells. Put plainly: IL-1β mediated PGE2 suppression, HEPM monolayer cell model. The class given is cell-based. The settings on record: cells treated with IL-1 β. From the text: IL-1 β Mediated PGE2 Suppression with Gymnema sylvestre Treatment (Cell Model)
PGE2, a marker of inflammation, can be increased via administration of IL-1 β. Samples are subjected to the HEPM monolayer cell model assay. […]

Regarding `Oc1cc(Cl)ccc1Oc1ccc(Cl)cc1Cl` [Triclosan], the PGE2 by setting is: (0.0005%) 715.9 pg/mL; (0.001%) 520.9 pg/mL.
